US20160045505A1, “COMPOUNDS AND COMPOSITIONS FOR THE TREATMENT OF PARASITIC DISEASES” (NOVARTIS AG, priority 2013, published 2016)
Where two headings read alike, the source gives them in different places.

Experiments:
[1] = test system: Leishmania donovani axenic amastigote parasites; assay: Leishmania donovani axenic amastigote proliferation assay (Cell TiterGlo luminescence, 2 day incubation); format: cell-based; settings: Leishmania donovani, read-out: L. donovani amastigotes EC50
[2] = test system: L. donovani HU3 strain in mouse peritoneal macrophages; assay: Assay for proliferation of Leishmania parasites in infected mouse peritoneal macrophages (SybrGreen staining, high-content imaging, 5 days); format: cell-based, Leishmania donovani; settings: Leishmania donovani, Peritoneal macrophage, L. donovani in mouse peritoneal macrophages, read-out: L. donovani Macrophage EC50
[3] = test system: Trypanosoma brucei Lister 427 strain, bloodstream form; assay: Assay for proliferation of kinetoplastid parasite Trypanosoma brucei (Cell Titer Glo, 48 hours); format: cell-based; settings: Trypanosoma brucei, T. brucei Lister 427 bloodstream form, read-out: T. brucei EC50
In short: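 Bloodstream-form T. brucei Lister 427 in HMI-9 medium was exposed to compound (DMSO vehicle) for 48 hours at 37° C, 5% CO2. Parasite growth was read as ATP by CellTiter-Glo luminescence, with EC50 calculated from percent inhibition.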

[4] = test system: Trypanosoma cruzi amastigotes (Tulahuen strain expressing Lac-Z) cultured in 3T3 fibroblast cells; assay: microbe, parasite or virus in culture; format: cell-based; settings: Trypanosoma cruzi, TULAHUEN, Fibroblast, T. cruzi amastigotes in 3T3 fibroblast cells, read-out: T cruzi EC50
[5] = axenic amastigotes, inhibition of proliferation

SMILES	EC50 [1, 5]	EC50 ([2]; inhibition of proliferation)	EC50 ([3]; inhibition of proliferation)	EC50 ([4]; inhibition of proliferation)	EC50 ([1]; L. donovani axenic amastigotes)	EC50 [2]	EC50 [3]	EC50 [4]
Cc1ncc(C(=O)Nc2ccc(F)c(-c3cn4cc(-c5ccccc5)cnc4n3)c2)o1 [Compound 329]	26 nM	57 nM	55 nM	7 nM				
Cc1ncc(C(=O)Nc2ccc(F)c(-c3cn4cc(C5=CCOCC5)cnc4n3)c2)o1 [Compound 330]	28 nM	114 nM	36 nM	104 nM				
CC(C)OC(=O)Nc1ccc(F)c(-c2cn3cc(-c4ccccc4)cnc3n2)c1 [Compound 331]	396 nM	360 nM	116 nM	53 nM				
CC(C)OC(=O)Nc1ccc(F)c(-c2cn3cc(C4=CCOCC4)cnc3n2)c1 [Compound 332]	166 nM	592 nM	124 nM	134 nM				
Cc1nc(C)c(C(=O)Nc2cccc(-c3cn4cc(C5=CCOCC5)cnc4n3)c2)o1 [Compound 335]	178 nM	521 nM	114 nM	407 nM				
Cc1nc(C)c(C(=O)Nc2cccc(-c3cn4cc(-c5ccccc5)cnc4n3)c2)o1 [Compound 336]	74 nM	168 nM	86 nM	45 nM				
O=C(Nc1cccc(-c2cn3cc(-c4ccccc4)cnc3n2)c1)N1CC[C@@H](F)C1 [Compound 337]	72 nM	195 nM	24 nM	68 nM				
Cc1nc(C)c(C(=O)Nc2ccc(F)c(-c3nc4ncc(-c5ccccc5)cn4c3F)c2)o1 [Compound 338]	47 nM	101 nM	40 nM	18 nM				
Nc1cc(-c2cnc3nc(-c4cc(NC(=O)N5CCCC5)ccc4F)cn3c2)ccn1 [Compound 342]	2140 nM	14600 nM	364 nM	9360 nM				
CC(C)(C)OC(=O)N1CCC(Oc2ccc(-c3cnc4nc(-c5cc(NC(=O)N6CCCC6)ccc5Cl)cn4c3)cc2)CC1 [Compound 345]	251 nM	955 nM	527 nM	408 nM				
Cc1nc(C)c(C(=O)Nc2ccc(F)c(-c3cn4cc(-c5ccc(CCN6CCOCC6)cc5)cnc4n3)c2)o1 [Compound 348]	341 nM	1030 nM	165 nM	41 nM				
Cc1nc(C)c(C(=O)Nc2ccc(F)c(-c3cn4cc(-c5ccc(CCO)cc5)cnc4n3)c2)o1 [Compound 349]	74 nM	672 nM	69 nM	180 nM				
O=C(Nc1ccc(F)c(-c2cn3cc(C4=CCCC4)cnc3n2)c1)N1CCCC1 [Compound 354]	26 nM	103 nM	4 nM	8 nM				
Cn1cnc(-c2cnc3nc(-c4cc(NC(=O)N5CCCC5)ccc4F)cn3c2)c1 [Compound 355]	97 nM	521 nM	86 nM	1140 nM				
Cc1ccccc1-c1cnc2nc(-c3cc(NC(=O)N4CCCC4)ccc3F)cn2c1 [Compound 356]	88 nM	332 nM	18 nM	16 nM				
Cc1nc(C)c(C(=O)Nc2ccc(F)c(-c3cn4cc(-c5ccc(OCCN6CCOCC6)cc5)cnc4n3)c2)o1 [Compound 359]	450 nM	4860 nM	1500 nM	405 nM				
Cc1nc(C)c(C(=O)Nc2ccc(F)c(-c3cn4cc(-c5ccc(CN(C)C)cc5)cnc4n3)c2)o1 [Compound 360]	3370 nM	450 nM	116 nM	252 nM				
Cc1nc(C)c(C(=O)Nc2ccc(F)c(-c3cn4cc(-c5ccc(S(C)(=O)=O)cc5F)cnc4n3)c2)o1 [Compound 362]	403 nM	> 34400 nM	345 nM	> 20000 nM				
Cc1nc(C)c(C(=O)Nc2ccc(F)c(-c3cn4cc(-c5ccn(C)n5)cnc4n3)c2)o1 [Compound 363]	77 nM	136 nM	58 nM	45 nM				
Cc1nc(C)c(C(=O)Nc2ccc(F)c(-c3cn4cc(-c5cccn5C(=O)OC(C)(C)C)cnc4n3)c2)o1 [Compound 364]	279 nM	155 nM	178 nM	220 nM				
Cc1nc(C)c(C(=O)Nc2ccc(F)c(-c3cn4cc(-c5c(C)noc5C)cnc4n3)c2)o1 [Compound 366]	849 nM	339 nM	338 nM	443 nM				
Cc1nc(C)c(C(=O)Nc2ccc(F)c(-c3cn4cc(-c5cccc(N6CCN(C(=O)OC(C)(C)C)CC6)n5)cnc4n3)c2)o1 [Compound 368]	463 nM	905 nM	498 nM	135 nM				

SMILES	EC50 [1, 5]	EC50 ([2]; inhibition of proliferation)	EC50 ([3]; inhibition of proliferation)	EC50 ([4]; inhibition of proliferation)	EC50 ([1]; L. donovani axenic amastigotes)	EC50 [2]	EC50 [3]	EC50 [4]
Cc1nc(C)c(C(=O)Nc2ccc(F)c(-c3cn4cc(-c5ccn[nH]5)cnc4n3)c2)o1 [Compound 369]	282 nM	294 nM	154 nM	988 nM				
Cc1nc(C)c(C(=O)Nc2ccc(F)c(-c3cn4cc(-c5cncn5C)cnc4n3)c2)o1 [Compound 370]	5470 nM	3610 nM	386 nM	7370 nM				
Cc1nc(C)c(C(=O)Nc2ccc(F)c(-c3cn4cc(C5=CCCO5)cnc4n3)c2)o1 [Compound 371]	1650 nM	2300 nM	1470 nM	465 nM				
Cc1nc(C)c(C(=O)Nc2ccc(F)c(-c3cn4cc(-c5ccccc5N)cnc4n3)c2)o1 [Compound 372]					221 nM	242 nM	80 nM	95 nM
Cc1nc(C)c(C(=O)Nc2ccc(F)c(-c3cn4cc(C5=CCCCO5)cnc4n3)c2)o1 [Compound 373]					115 nM	134 nM	44 nM	84 nM
Cc1nc(C)c(C(=O)Nc2ccc(F)c(-c3cn4cc(-c5cscn5)cnc4n3)c2)o1 [Compound 374]					40 nM	43 nM	425 nM	41 nM
Cc1nc(C)c(C(=O)Nc2ccc(F)c(-c3cn4cc(C5=CCCN(C)C5)cnc4n3)c2)o1 [Compound 375]					4300 nM	499 nM	135 nM	303 nM
Cc1cccc(-c2cnc3nc(-c4cc(NC(=O)c5oc(C)nc5C)ccc4F)cn3c2)n1 [Compound 376]					85 nM	256 nM	158 nM	96 nM
Cc1nc(C)c(C(=O)Nc2ccc(F)c(-c3cn4cc(-c5ccncc5)cnc4n3)c2)o1 [Compound 377]					75 nM	144 nM	42 nM	137 nM
Cc1nc(C)c(C(=O)Nc2ccc(F)c(-c3cn4cc(C5=CCN(Cc6ccccc6)CC5)cnc4n3)c2)o1 [Compound 378]					543 nM	134 nM	38 nM	47 nM
Cc1nc(C)c(C(=O)Nc2ccc(F)c(-c3cn4cc(C5=CC(C)(C)OC(C)(C)C5)cnc4n3)c2)o1 [Compound 379]					528 nM	1680 nM	1430 nM	683 nM
Cc1nc(C)c(C(=O)Nc2ccc(F)c(-c3cn4cc(-c5ccc(NC(C)C)cc5)cnc4n3)c2)o1 [Compound 380]					24500 nM	33900 nM	30700 nM	14000 nM
CCN(C)C(=O)Nc1ccc(F)c(-c2cn3cc(-c4ccccn4)cnc3n2)c1 [Compound 381]					392 nM	1440 nM	482 nM	445 nM
Cc1nc(C)c(C(=O)Nc2ccc(F)c(-c3cn4cc(-c5ccc(N6CCN(C(C)C)CC6)cc5)cnc4n3)c2)o1 [Compound 382]					3880 nM	10700 nM	2600 nM	1390 nM
Cc1nc(C)c(C(=O)Nc2ccc(F)c(-c3cn4cc(-c5ccc(N6CCOCC6)cc5)cnc4n3)c2)o1 [Compound 383]					146 nM	521 nM	331 nM	137 nM
Cc1nc(C)c(C(=O)Nc2ccc(F)c(-c3cn4cc(-c5cnn(C6CCN(C(=O)OC(C)(C)C)CC6)c5)cnc4n3)c2)o1 [Compound 384]					95 nM	616 nM	143 nM	115 nM
Cc1nc(C)c(C(=O)Nc2ccc(F)c(-c3cn4cc(-c5cnn(C6CCOCC6)c5)cnc4n3)c2)o1 [Compound 385]					268 nM	> 36700 nM	369 nM	1160 nM
Cc1nc(C)c(C(=O)Nc2ccc(F)c(-c3cn4cc(-c5cn[nH]c5)cnc4n3)c2)o1 [Compound 386]					1500 nM	> 50000 nM	1550 nM	> 20000 nM
Cc1nc(C)c(C(=O)Nc2ccc(F)c(-c3cn4cc(-c5cnn(CCN6CCOCC6)c5)cnc4n3)c2)o1 [Compound 388]					1010 nM	2950 nM	415 nM	3530 nM
Cc1nc(C)c(C(=O)Nc2ccc(F)c(-c3cn4cc(-c5cnn(C)c5)cnc4n3)c2)o1 [Compound 389]					97 nM	330 nM	158 nM	254 nM
Cc1nc(C)c(C(=O)Nc2ccc(F)c(-c3cn4cc(-c5ccnn5C(C)C)cnc4n3)c2)o1 [Compound 390]					53 nM	174 nM	54 nM	75 nM
